Results reported in patent publication US7897340B2, “Use of tumor susceptibilty gene 101 (TSG 101) as a prognostic and diagnostic marker” (The Board of Regents of the University of Texas System, priority 2006, dated 2011).

How the values were obtained:
p14ARF = conditions: T29H cells
Procedure: Protein concentrations of cell lysates were assayed with the Bio-Rad protein assay reagent. Equal amounts of protein were loaded onto 12% SDS polyacrylamide mini-gels (Bio-Rad) or 10% Tricine-SDS gels and transferred to PVDF membranes. PVDF blots and the remaining polyacrylamide gels were stained with Ponceau S and Coomassie Blue, respectively, to ensure equal loading and even transfer of the samples. After being blocked overnight in 5% milk in TBS-Tween, blots were incubated with corresponding primary antibodies for 1.5 hrs, followed by HRP-conjugated secondary antibody (1:4000, Bio-Rad) for 45 min. Antigen-antibody complexes were detected by enhanced chemiluminescence (Pierce).

TSG101 = TSG101 protein levels by immunoblotting in T29H cells; format: cell-based, human; conditions: inhibitor pretreatment 24 hrs (FTI-277 10 μM, U0126 20 μM, LY294002 10 μM)
Description: Antigen-antibody complexes were detected by enhanced chemiluminescence (Pierce).

RAS-GTP = conditions: T29H cells, data not shown
TSG101 mRNA = TSG101 mRNA levels by semi-quantitative PCR in T29 and T29H cells; format: cell-based, human; conditions: FTI-277 10 μM 24 hours
Procedure: Total RNA was isolated from cells using Trizol reagent (Invitrogen), and concentration was determined by absorbance at 260 nm. Real-Time PCR analysis was carried out using fluorescent TSG101 primers on an Applied Biosystems Prism 7000 Sequence Detection System. RT-PCR was carried out for TSG101 and HIF-1α using 1 μg of isolated total RNA under the following parameters: 94° C. 1 min, 57° C. 1 min and 72° C. 1.5 min, 35 cycles. Primers used for RT-PCR were TSG10 forward [NT] ID NO: 1), reverse [NT] ID NO: 2), CITED2 forward [NT] ID NO: 3), reverse [NT] ID NO: 4), HIF-1a ? forward [NT] ID NO: 5), reverse [NT] ID NO: 6). […] This up-regulation was further confirmed by immunoblotting analysis of equal amount of independent total protein lysates from pooled T29 and […] cells using an antibody specific to TSG101 (FIG. 1C). To check if the apparent increase in TSG101 protein was due to the transcriptional regulation of the TSG101 gene, the levels of TSG101 mRNA in T29 and […] cells were examined by semiquantitive (FIG. 1D) and real-time PCRs (FIG. 1E). […] Furthermore, the levels of TSG101 mRNA were not affected by FTI-277, a farnesyl transferase inhibitor that blocks the activation of RAS (FIG. 1D).

N#CC(=C(/N)Sc1ccccc1N)/C(C#N)=C(\N)Sc1ccccc1N [U0126]
cellular level of p14ARF (p14ARF): suppressed
TSG101 protein levels (TSG101): significantly decreased

COC(=O)[C@H](CCSC)NC(=O)c1ccc(NC[C@@H](N)CS)cc1-c1ccccc1 [FTI-277]
RAS-GTP levels (RAS-GTP): significantly inhibited
TSG101 protein levels (TSG101): significant decrease
levels of TSG101 mRNA (TSG101 mRNA): not affected
